This passage reports Kd results from BindingDB's records for doi:10.1016/s0960-894x(99)00041-4 (1999).

Each structure is given as a SMILES string. pKd: −log10 of the molar value. Numbered stars: 1 amine (or outer) side, 2 acyl side, 3 side chain; on linkers, the order of the positions; unused ones are H or OH. Bridge positions count the residues as written; N and C are the ends. Square brackets hold non-standard residues; d marks the D form. Peptide text beside a SMILES is read from it. X1 = O=C([C@@]1(N[*:1])CCc2ccccc2C1)[*:2]; Atc(2S) = N[C@@]1(C(=O)O)CCc2ccccc2C1; Mpa = O=C(O)CCS; Sar = CNCC(=O)O

The test deals with Oxytocin receptor (Cavia porcellus). Kind of test: Compound was evaluated for its dissociation constant (Kd) to guinea pig myometrial Oxytocin receptor.
`CC[C@H](C)[C@@H]1NC(=O)[C@@]2(CCc3ccccc3C2)NC(=O)CCSSC[C@@H](C(=O)N(C)CC(=O)N[C@@H](CCCN=C(N)N)C(=O)NCC(N)=O)NC(=O)[C@H](CC(N)=O)NC(=O)[C@H](CCC(N)=O)NC1=O` ([Mpa][Atc(2S)]IQNC[Sar]RG-NH2; disulfide 1-6): the pKd was 6.43.

Take `CC[C@H](C)[C@@H]1NC(=O)[C@]2(CCc3ccccc3C2)NC(=O)CCSSC[C@@H](C(=O)N(C)CC(=O)N[C@@H](CCCN=C(N)N)C(=O)NCC(N)=O)NC(=O)[C@H](CC(N)=O)NC(=O)[C@H](CCC(N)=O)NC1=O` ([Mpa][X1]IQNC[Sar]RG-NH2; disulfide 1-6): the pKd was 5.72. Compared with the last compound, the pKd is 0.71 log units lower.

Compound `CC[C@H](C)[C@@H]1NC(=O)[C@@H](Cc2c[nH]c3ccccc23)NC(=O)CCSSC[C@@H](C(=O)N(C)CC(=O)N[C@@H](CCCNC(=N)N)C(=O)NCC(N)=O)NC(=O)[C@H](CC(N)=O)NC(=O)[C@H](CCC(N)=O)NC1=O` [Mpa-D-Trp-lle-Gln-Asn-Cys-Sar-Arg-Gly-NH2] gave a pKd of 7.42.
